Results: publication PMC10049699, “Identification and Empiric Evaluation of New Inhibitors of the Multidrug Transporter P-Glycoprotein (ABCB1)” (International Journal of Molecular Sciences, 2023)
“Also recorded” adds a separate entry of the source.

How the values were obtained:
Assay type in all cases: cell-based
ABCB1 [1] = biological target: T1, ABCB1 (Homo sapiens, UniProt P08183); assay: OG-taxol efflux inhibition assay in Flp-In-ABCB1 cells, flow cytometry; details: 100 nM test compound, OG-taxol 0.4 μM
T1 construct: expressed in transfected cells
T1 sequence (P08183 whole entry): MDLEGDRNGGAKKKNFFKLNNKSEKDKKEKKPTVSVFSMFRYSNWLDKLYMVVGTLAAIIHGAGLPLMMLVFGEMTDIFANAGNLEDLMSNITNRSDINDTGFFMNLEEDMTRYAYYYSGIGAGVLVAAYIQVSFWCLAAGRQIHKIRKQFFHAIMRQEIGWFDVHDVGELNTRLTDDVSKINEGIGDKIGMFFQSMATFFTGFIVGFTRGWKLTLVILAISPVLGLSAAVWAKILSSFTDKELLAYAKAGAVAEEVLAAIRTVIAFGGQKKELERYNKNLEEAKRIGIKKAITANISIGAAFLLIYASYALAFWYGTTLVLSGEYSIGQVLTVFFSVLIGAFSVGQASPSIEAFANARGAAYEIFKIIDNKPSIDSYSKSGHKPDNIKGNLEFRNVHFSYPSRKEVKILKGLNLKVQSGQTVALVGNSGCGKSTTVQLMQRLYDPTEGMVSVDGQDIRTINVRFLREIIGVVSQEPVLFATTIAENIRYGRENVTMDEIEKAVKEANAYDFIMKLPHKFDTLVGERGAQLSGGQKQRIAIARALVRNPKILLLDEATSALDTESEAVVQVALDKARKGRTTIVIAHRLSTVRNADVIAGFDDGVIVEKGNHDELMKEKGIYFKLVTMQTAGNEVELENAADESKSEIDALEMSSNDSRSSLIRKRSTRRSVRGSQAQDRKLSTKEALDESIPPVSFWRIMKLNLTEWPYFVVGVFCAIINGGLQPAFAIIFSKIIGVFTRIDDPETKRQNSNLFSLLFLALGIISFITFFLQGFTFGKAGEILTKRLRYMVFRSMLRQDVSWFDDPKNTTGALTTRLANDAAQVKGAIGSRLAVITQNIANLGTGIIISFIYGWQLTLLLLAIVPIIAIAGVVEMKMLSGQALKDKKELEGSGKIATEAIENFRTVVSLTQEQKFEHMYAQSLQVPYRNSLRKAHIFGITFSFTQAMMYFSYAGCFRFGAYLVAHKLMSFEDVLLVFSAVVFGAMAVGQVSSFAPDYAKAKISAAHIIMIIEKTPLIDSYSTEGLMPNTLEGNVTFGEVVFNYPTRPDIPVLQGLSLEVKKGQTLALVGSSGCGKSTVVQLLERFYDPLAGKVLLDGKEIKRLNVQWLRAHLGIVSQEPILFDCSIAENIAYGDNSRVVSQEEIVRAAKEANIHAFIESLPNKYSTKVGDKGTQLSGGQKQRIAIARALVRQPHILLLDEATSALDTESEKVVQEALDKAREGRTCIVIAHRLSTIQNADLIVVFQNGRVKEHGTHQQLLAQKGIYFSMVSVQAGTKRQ
Text: (§1) The four compounds are potent inhibitors of calcein-AM transport, but can they inhibit the efflux of chemotherapeutic drugs. To address this question, we first substituted a fluorescent derivative of the anticancer drug taxol for calcein-AM in a transport assay. […] We next tested whether the drugs would sensitise the Flp-In-ABCB1 cells to the clinically relevant form of taxol. The Flp-In-ABCB1 cells and their parental Flp-In cells were challenged over a three-day period with a range of concentrations of taxol in the presence and absence of test compounds at 100 nM concentration.
(§2) Flp-In-293 and Flp-In-ABCB1-12His cells were grown as monolayers in Dulbecco’s modified Eagle medium (DMEM; ThermoFisher Sci, Waltham, MA, USA) supplemented with 10% foetal bovine serum (FBS; ThermoFisher Sci, Waltham, MA, USA). The cell lines were incubated in a humidified incubator at a temperature of 37 °C in an atmosphere of 5% CO2. For the drug transport assay, cells (3 × 10^5 per well) were seeded in a 24-well, flat-bottomed plate (Sarstedt AG and Co., Nümbrecht, Germany) in 500 μL growth medium and incubated for 24 h, as above. The medium was aspirated, and the cells were washed with the transport buffer (phenol-red free DMEM, with 1% FBS). Next, the cells were incubated with calcein-AM (Invitrogen, Waltham, MA, USA) at 250 nM or OG-taxol (Invitrogen, Waltham, MA, USA) at 0.4 μM in 200 μL transport buffer for 30 min at 37 °C in the presence or absence of inhibitor (Tariquidar was purchased from MedChemExpress (Monmouth Junction, NJ, USA) and the test inhibitors were from Chembridge Corporation (San Diego, CA, USA); Table 2). All test compounds, tariquidar, and calcein-AM were solubilized in DMSO and further diluted in transport buffer for the transport assay. The concentration of DMSO in the final solution never exceeded 1.1%, at which concentration it has no apparent effect on the cells or the function of ABCB1. The medium was then aspirated, and cells were washed with ice-cold transport buffer and harvested with 25 μL trypsin (TrypLE express enzyme; ThermoFisher Sci, Waltham, MA, USA). The cells were recovered in a flow cytometry tube in 300 μL ice-cold transport buffer for flow cytometry using a BD LSR II flow cytometer (Becton Dickinson, Franklin Lakes, NJ, USA).

Flp-In parental cells = assay: Taxol challenge assay, parental cells / growth with inhibitor alone; details: for cytotoxicity of test compound: 100 nM, three-day (72 h) period, cell line not specified; for effect on the growth of the Flp-In parental cells: test compound at 100 nM
Text: as §1
(§3) Flp-In-293 and Flp-In-ABCB1-12His cells (1 × 10^4) were seeded into a 96-well dish in 100 μL of medium, as above. Taxol (Cambridge Bioscience, Cambridge, UK) was added to a final concentration ranging from 0 nM to 10 μM in the presence or absence of inhibitors at 100 nM. The cells were cultured for a further 72 h, after which the medium was aspirated, and the cells were detached with 30 μL TrypLE Express (ThermoFisher Sci, Waltham, MA, USA) before quenching with 75 μL transport buffer and transfer to flow cytometry tubes. Cells of normal size and granularity, gated on the zero-drug condition and then applied to all samples, were counted in an ACEA NovoCyte flow cytometer (Agilent Technologies, Santa Clara, CA, USA). Cell number data were analysed in Graphpad PRISM (MacOS Version 9.4.1; GraphPad Software, San Diego, CA, USA). Curve fitting and statistical analysis was performed as above.

ABCB1 [2] = biological target: T1, ABCB1; assay: calcein-AM drug transport (accumulation) assay in live Flp-In-ABCB1 cells, flow cytometry; details: for IC50: Flp-In-ABCB1 cells, 30 min, n = 3 biological repeats, read-out: IC50 for inhibition of ABCB1 transport activity; for mean bottom plateau value of ABCB1 activity curve (efficacy): ratio of calcein content of ABCB1 non-expressing cells to whole population, full inhibition at 1.0; for effect on ABCB1: preliminary data, up to a concentration of 100 nM
Description: We have previously integrated a single copy of pcDNA5/FRT-ABCB1-12His into the genome of Flp-In 293 cells to generate the Flp-In-ABCB1 cell line. To prevent possible drug–drug interactions during the transport assay, the Flp-In-ABCB1 cells were cultured in the absence of hygromycin, which is normally used to select for the continued expression of the hygromycin resistance gene carried on the pcDNA5/FRT plasmid. […] We also used the non-toxic cell-permeant dye calcein-AM as a transport substrate of ABCB1 [35, 36].
The concentration of calcein-AM was titrated until the ABCB1-positive cells began to accumulate calcein. […] This concentration was used in all further live cell transport assays. To test whether the assay could be applied to drug inhibition studies, we incubated the Flp-In-ABCB1 cells with calcein-AM in the presence of the third-generation inhibitor tariquidar.
These are the cells that no longer express ABCB1 (population […] in Figure 2B) due either to deletion of the plasmid from the genome or, perhaps more likely, silencing of the locus by chromatin condensation. These cells survive in the absence of hygromycin selection, but they are useful as they provide an internal negative control that can be easily identified in the single channel histogram at the lowest level of inhibitor. Transport activity of the ABCB1 was, thus, calculated using the fold difference in median drug accumulation by this ABCB1 non-expressing population G4 at the lowest concentration of inhibitor versus the median drug accumulation across all cells (population G5), as described in Equation (1). (1) Median drug accumulation in ABCB1 non−expressing cells G4/Median drug accumulation in the whole population G5
as §2
In order to correlate ABCB1 expression with calcein-AM efflux activity, a slightly different order was used, as described previously. Briefly, the cells were first detached from the well and incubated with saturating levels of primary antibody 4E3 (0.5 μg, Abcam, Cambridge, UK) in 100 μL transport buffer on ice for 30 min. […]

Flp-In-ABCB1 cells = assay: Taxol challenge assay (resensitisation to taxol); details: test compound at 100 nM, three-day period
Text: as §1, §3

[3] = Taxol challenge assay (resensitisation to taxol); details: human; Flp-In-ABCB1 (ABCB1 wt) cells, three-day culture, n = 3; read-out: IC50 for taxol (cell number) in the absence of inhibitor
Text: as §1, §3

[4] = ratio of IC50 values, calcein-AM assay

With `Cc1ccc(N2CCN(c3cc(C4CC(N)C4)nc(N)n3)CC2)cc1C` (stereo not drawn) [E, 4-(3-aminocyclobutyl)-6-[4-(3,4-dimethylphenyl)piperazin-1-yl]pyrimidin-2-amine] the “inhibition of OG-taxol efflux by ABCB1” value (ABCB1 [1]) was “inhibition of OG-taxol efflux”, the “cytotoxicity of test compound” value (Flp-In parental cells) was “did kill cells; also recorded: cytotoxic” and the IC50 (ABCB1 [2]; 250 nM calcein-AM) was 14.6 nM. The “fold less potent than tariquidar” value (ABCB1 [2]; [4]) was 128 fold and the “mean bottom plateau value of ABCB1 activity curve (efficacy)” value (“mean bottom plateau value” for short) (ABCB1 [2]) was 0.93.

For `Cc1nnc(NS(=O)(=O)c2ccc3c(c2)CN(C(=O)[C@H](N)C(C)C)CC3)s1` [C, N-(5-methyl-1,3,4-thiadiazol-2-yl)-2-D-valyl-1,2,3,4-tetrahydroisoquinoline-7-sulfonamide], the “effect on ABCB1” value (ABCB1 [2]; 250 nM calcein-AM) was “no effect”.

For `COc1cc2c(cc1OC)CN(CCc1ccc(NC(=O)c3cc(OC)c(OC)cc3NC(=O)c3cnc4ccccc4c3)cc1)CC2` [Tariquidar, N-[2-[[4-[2-(6,7-dimethoxy-3,4-dihydro-1H-isoquinolin-2-yl)ethyl]phenyl]carbamoyl]-4,5-dimethoxyphenyl]quinoline-3-carboxamide, reference compound], the “inhibition of ABCB1 (calcein accumulation to level of parental Flp-In cells)” value (ABCB1 [2]; 1 nM tariquidar, 250 nM calcein-AM) was “fully inhibited”, the IC50 (ABCB1 [2]; 250 nM calcein-AM) was 0.114 nM and the “mean bottom plateau value” value (ABCB1 [2]) was 0.78.

In the case of `Cc1cccc(N2CCN(CC(=O)Nc3nnc(CCN(C)C)s3)CC2)c1` [D, N-{5-[2-(dimethylamino)ethyl]-1,3,4-thiadiazol-2-yl}-2-[4-(3-methylphenyl)piperazin-1-yl]acetamide], the “inhibition of OG-taxol efflux by ABCB1” value (ABCB1 [1]) is reported as “inhibition of OG-taxol efflux”, the “resensitisation of Flp-In-ABCB1 cells to taxol” value (Flp-In-ABCB1 cells) is reported as “resensitised” and the “effect on the growth of the Flp-In parental cells” value (Flp-In parental cells; three-day culture) is reported as “no effect; also recorded: do not inhibit cell growth”. For the same compound, the IC50 (ABCB1 [2]; 250 nM calcein-AM) was 23.6 nM, the “fold less potent than tariquidar” value (ABCB1 [2]; [4]) was 200 fold and the “fold less potent than test compound 'A'” value (ABCB1 [2]; [4]) was 17 fold. For the same compound, the “mean bottom plateau value” value (ABCB1 [2]) was 0.58.

With `Cc1ccc(CNC(=O)C2CCN(c3cc(C4CC(N)C4)nc(C)n3)CC2)cc1.Cl.Cl` (stereo not drawn) [B, 1-[6-(3-aminocyclobutyl)-2-methylpyrimidin-4-yl]-N-(4-methylbenzyl)piperidine-4-carboxamide dihydrochloride] the “effect on ABCB1” value (ABCB1 [2]; 250 nM calcein-AM) was “no effect”.

For `O=C1CCC(CCNCc2ccccc2)N1Cc1ccc(-n2cccn2)cc1` (stereo not drawn) [A, 5-[2-(benzylamino)ethyl]-1-[4-(1H-pyrazol-1-yl)benzyl]-2-pyrrolidinone], the “inhibition of OG-taxol efflux by ABCB1” value (ABCB1 [1]) was “inhibition of OG-taxol efflux”, the “resensitisation of Flp-In-ABCB1 cells to taxol” value (Flp-In-ABCB1 cells) was “resensitised” and the “effect on the growth of the Flp-In parental cells” value (Flp-In parental cells; three-day culture) was “no effect; also recorded: do not inhibit cell growth”. The IC50 (ABCB1 [2]; 250 nM calcein-AM) was 1.4 nM, the “fold less potent than tariquidar” value (ABCB1 [2]; [4]) was 12 fold and the “mean bottom plateau value” value (ABCB1 [2]) was 1.0.

For `CC(=O)O[C@H]1C(=O)[C@@]2(C)[C@H]([C@H](OC(=O)c3ccccc3)[C@]3(O)C[C@H](OC(=O)[C@H](O)[C@@H](NC(=O)c4ccccc4)c4ccccc4)C(C)=C1C3(C)C)[C@]1(OC(C)=O)CO[C@@H]1C[C@@H]2O` [taxol, reference compound], the IC50 at 72 h [3] was 125 nM and the IC50 (Flp-In parental cells; 72 h, Flp-In parental cells, three-day culture, n = 3, read-out: IC50 for taxol (cell number) in the absence of inhibitor) was 5 nM.

With `Cc1cccc(N2CCN(c3cc(C4CC(N)C4)nc(C4CC4)n3)CC2)c1C.Cl.Cl` (stereo not drawn) [F, (3-{2-cyclopropyl-6-[4-(2,3-dimethylphenyl)-1-piperazinyl]-4-pyrimidinyl}cyclobutyl)amine dihydrochloride] the “inhibition of OG-taxol efflux by ABCB1” value (ABCB1 [1]) was “inhibition of OG-taxol efflux”, the “cytotoxicity of test compound” value (Flp-In parental cells) was “did kill cells; also recorded: cytotoxic” and the IC50 (ABCB1 [2]; 250 nM calcein-AM) was 4.8 nM. For the same compound, the “fold less potent than tariquidar” value (ABCB1 [2]; [4]) was 42 fold and the “mean bottom plateau value” value (ABCB1 [2]) was 0.36.
